Assay results reported in ChEMBL document CHEMBL1139020, “Aryl O- and S-galactosides and lactosides as specific inhibitors of human galectins-1 and -3: role of electrostatic potential at O-3” (Bioorg Med Chem Lett, 2006).

Assays:
[1] = target: Galectin-1 (Homo sapiens) (UniProt P09382); assay: Inhibition of Galectin1
[2] = target: Galectin-3 (Homo sapiens) (UniProt P17931); assay: Inhibition of Galectin3
Sequence of Galectin-3 (Homo sapiens) (P17931 whole entry): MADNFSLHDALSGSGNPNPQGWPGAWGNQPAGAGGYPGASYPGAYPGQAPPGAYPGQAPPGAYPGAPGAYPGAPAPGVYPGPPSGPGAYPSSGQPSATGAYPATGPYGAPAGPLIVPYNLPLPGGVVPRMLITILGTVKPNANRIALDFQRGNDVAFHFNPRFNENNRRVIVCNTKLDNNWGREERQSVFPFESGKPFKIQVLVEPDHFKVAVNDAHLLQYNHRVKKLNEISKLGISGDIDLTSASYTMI

Sequence of Galectin-1 (Homo sapiens) (P09382 whole entry): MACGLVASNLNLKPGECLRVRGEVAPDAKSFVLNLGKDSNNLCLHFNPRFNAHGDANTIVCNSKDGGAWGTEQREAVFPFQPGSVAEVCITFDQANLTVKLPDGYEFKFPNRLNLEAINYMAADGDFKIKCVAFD

Row | Molecule | Activity [1] | Activity [2]
1 | O=C[C@H](O)[C@@H](O)[C@@H](O)[C@H](O)CO | 50 mM | 50 mM
2 | O=S(=O)(c1ccc(Br)cc1)[C@@H]1O[C@H](CO)[C@@H](O[C@@H]2O[C@H](CO)[C@H](O)[C@H](O)[C@H]2O)[C@H](O)[C@H]1O | 0.313 mM | 0.313 mM
3 | CC(=O)OC[C@H]1O[C@@H](Oc2ccccc2[N+](=O)[O-])[C@H](OC(C)=O)[C@@H](OC(C)=O)[C@@H]1O[C@@H]1O[C@H](CO)[C@H](O)[C@H](O)[C@H]1O | 0.08 mM | 0.625 mM
4 | CC(=O)OC[C@H]1O[C@@H](Oc2ccccc2[N+](=O)[O-])[C@H](OC(C)=O)[C@@H](OC(C)=O)[C@H]1O | > 5 mM | > 5 mM
5 | COc1ccc(S(=O)(=O)[C@@H]2O[C@H](CO)[C@H](O)[C@H](O)[C@H]2O)cc1 | > 5 mM | > 5 mM
6 | O=S(=O)(c1ccc2ccccc2c1)[C@@H]1O[C@H](CO)[C@@H](O[C@@H]2O[C@H](CO)[C@H](O)[C@H](O)[C@H]2O)[C@H](O)[C@H]1O | 0.04 mM | 0.313 mM
7 | CC(=O)OC[C@H]1O[C@@H](Sc2ccc(Br)cc2)[C@H](OC(C)=O)[C@@H](OC(C)=O)[C@@H]1O[C@@H]1O[C@H](CO)[C@H](O)[C@H](O)[C@H]1O | 0.313 mM | 0.313 mM
8 | COc1ccc(S[C@@H]2O[C@H](COC(C)=O)[C@@H](O[C@@H]3O[C@H](CO)[C@H](O)[C@H](O)[C@H]3O)[C@H](OC(C)=O)[C@H]2OC(C)=O)cc1 | 0.313 mM | 0.313 mM
9 | CC(=O)OC[C@H]1O[C@@H](Sc2ccc3ccccc3c2)[C@H](OC(C)=O)[C@@H](OC(C)=O)[C@@H]1O[C@@H]1O[C@H](CO)[C@H](O)[C@H](O)[C@H]1O | 0.313 mM | 0.313 mM
10 | CC(=O)OC[C@H]1O[C@@H](Oc2ccc([N+](=O)[O-])cc2)[C@H](OC(C)=O)[C@@H](OC(C)=O)[C@H]1O | 10 mM | 10 mM
11 | CC(=O)OC[C@H]1O[C@@H](Sc2ccc([N+](=O)[O-])cc2)[C@H](OC(C)=O)[C@@H](OC(C)=O)[C@@H]1O[C@@H]1O[C@H](CO)[C@H](O)[C@H](O)[C@H]1O | 0.313 mM | 0.313 mM
12 | CC(=O)OC[C@H]1O[C@@H](Sc2ccc3ccccc3c2)[C@H](OC(C)=O)[C@@H](OC(C)=O)[C@H]1O | 5 mM | 5 mM
13 | CC(=O)OC[C@H]1O[C@@H](Oc2ccc([N+](=O)[O-])cc2)[C@H](OC(C)=O)[C@@H](OC(C)=O)[C@@H]1O[C@@H]1O[C@H](CO)[C@H](O)[C@H](O)[C@H]1O | 0.313 mM | 0.625 mM
14 | COc1ccc(S[C@@H]2O[C@H](COC(C)=O)[C@H](O)[C@H](OC(C)=O)[C@H]2OC(C)=O)cc1 | > 5 mM | 2.5 mM
15 | CC(=O)OC[C@H]1O[C@@H](Sc2ccc([N+](=O)[O-])cc2)[C@H](OC(C)=O)[C@@H](OC(C)=O)[C@H]1O | 2.5 mM | > 5 mM
16 | LACTOSE, ANHYDROUS | 0.8 mM | 0.8 mM
